pIC50: −log10 of the molar value. The source made the active and inactive calls. The rule behind the calls is not given here.

Here are results for 22 compounds from PubChem BioAssay AID434987 (Southern Research Specialized Biocontainment Screening …, 2010).

For the test, the system named is M. tuberculosis H37Rv growth inhibition with meropenem. In words: dose response, H37Rv, with and without meropenem (AID 434987).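 Note: growth over 7 days at 37 °C before Alamar Blue read on day 9.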
The mark [1] stands for this setting: M. tuberculosis H37Rv growth inhibition, measured here: IC50 without meropenem.
Where [2] appears, read: M. tuberculosis H37Rv growth inhibition, measured here: IC90 without meropenem.
The mark [3] stands for this setting: measured here: IC90 with meropenem.

For the compound `CSc1ccc(/C=C/C(=O)Nc2ccccc2)cc1`, the IC50 was > 100 µM (inactive). Also, the negative-log IC50 (pIC50) under setting [1] is less than 4.00. The compound further registered an IC90 under setting [2] greater than 100 µM. The compound further showed a concentration for an effect of 90% (IC90) under setting [3] greater than 100 µM.

On to `FC(F)Oc1ccccc1C1CC(c2ccc(Br)s2)Nc2ncnn21` (stereo not drawn), for which the IC50 is > 100 µM (inactive). Under setting [1], the pIC50 is less than 4.00. The IC90 under setting [2] is greater than 100 µM. The compound further returned an IC90 under setting [3] greater than 100 µM.

For the compound `Cc1ccc(C(C)C)c(OCc2ccc(C(=O)N/N=C/c3ccc(C(=O)O)cc3)cc2)c1`, the pIC50 was 4.87. In addition, under setting [1], the pIC50 was 4.36. Besides, the IC90 under setting [2] came out at 84.9 µM. The same compound came in with an IC90 under setting [3] of 49.5 µM.

Turning to `COc1ccc(C(=O)CN(C(=O)c2ccc(Cl)cc2)N2C(=O)c3ccccc3C2=O)cc1`, the pIC50 is 5.25. Under setting [1], this compound had a pIC50 of 4.46. Under setting [2], the IC90 is greater than 100 µM. For the same compound, the IC90 under setting [3] came to 22.4 µM.

In the case of `COc1cc(C(=O)N/N=C/c2ccc(OC(=O)c3cccc(C)c3)cc2)ccc1O`, the pIC50 was 5.34. Under setting [1], this compound showed a pIC50 of 4.11. This compound also registered a concentration for an effect of 90% (IC90) under setting [2] greater than 100 µM. This compound displayed a concentration for an effect of 90% (IC90) under setting [3] of 53.4 µM.

As for `COc1ccc(NC(=O)C(Cc2ccccc2)n2cccc2)c(OC)c1` (stereo not drawn), the pIC50 is 4.87. Also, the pIC50 under setting [1] is 4.32. The same compound gave an IC90 under setting [2] greater than 100 µM. The IC90 under setting [3] was greater than 100 µM.

Consider `Cn1nnnc1SCC(=O)Nc1ccccc1[N+](=O)[O-]`, for which the pIC50 is 4.54. Under setting [1], the pIC50 is 4.14. Besides, under setting [2], the IC90 is greater than 100 µM. Also, the IC90 under setting [3] is greater than 100 µM.

Take `N/C(=N\c1nc2ccccc2o1)NC(=O)c1ccccc1Br`: the pIC50 is greater than 6.70. The compound further had a negative-log IC50 (pIC50) under setting [1] of 4.55. The same compound showed an IC90 under setting [2] greater than 100 µM. Moreover, under setting [3], the IC90 was greater than 100 µM.

On to `N=C1C(c2nc(-c3ccc(Cl)cc3)cs2)=C(O)CN1CCCN1CCOCC1`, for which the IC50 was > 100 µM (inactive). Under setting [1], the pIC50 is less than 4.00. The compound also registered an IC90 under setting [2] greater than 100 µM. Besides, under setting [3], the IC90 was greater than 100 µM.

Regarding `COc1ccc(-c2cc3cc(OC)c(OC)cc3c(C)n2)cc1`, the IC50 was > 100 µM (inactive). The same compound gave a pIC50 under setting [1] of less than 4.00. This compound also registered an IC90 under setting [2] greater than 100 µM. For the same compound, the IC90 under setting [3] was greater than 100 µM.

As for `Nc1c(Cl)cc(-c2csc(N3CCCC3c3nc4cc(Cl)c(N5CCCCC5)cc4n3CCCO)n2)cc1Cl` (stereo not drawn), the IC50 is 97.3 µM (inactive). Under setting [1], the pIC50 was less than 4.00. This compound came in with an IC90 under setting [2] greater than 100 µM. The same compound had an IC90 under setting [3] greater than 100 µM.

For the compound `Cc1ccc(/C=C/C(=O)OCC(=O)NC(C)c2ccccc2)o1` (stereo not drawn), the IC50 was > 100 µM (inactive). For the same compound, the pIC50 under setting [1] is less than 4.00. Also, the IC90 under setting [2] was greater than 100 µM. The same compound showed an IC90 under setting [3] greater than 100 µM.

Turning to `COc1ccccc1NS(=O)(=O)c1cccc(N2CC(O)=C(c3ccccc3)C2=N)c1`, the IC50 was 8.71 µM (inactive). Under setting [1], this compound gave a pIC50 of 4.67. For the same compound, the IC90 under setting [2] is greater than 100 µM. Further, the IC90 under setting [3] was found to be 16 µM.

In the case of `Cc1nc(SCC(=O)NCc2ccco2)c2c3c(sc2n1)CCCC3`, the IC50 was > 100 µM (inactive). Further, the pIC50 under setting [1] is less than 4.00. This compound registered an IC90 under setting [2] greater than 100 µM. In addition, the IC90 under setting [3] was greater than 100 µM.

As for `O=C(COC(=O)C1CC1)NCc1ccccc1Cl`, the pIC50 is 5.86. In addition, under setting [1], the pIC50 was less than 4.00. For the same compound, the 90% effect concentration (IC90) under setting [2] is greater than 100 µM. Besides, under setting [3], the IC90 was greater than 100 µM.

On to `CCSc1nc2ccccc2c(=O)n1CCc1ccc(OC)c(OC)c1`, for which the IC50 was > 100 µM (inactive). This compound gave a pIC50 under setting [1] of less than 4.00. Besides, under setting [2], the IC90 is greater than 100 µM. Besides, under setting [3], the IC90 is greater than 100 µM.

On to `CN(C)S(=O)(=O)Oc1ccsc1C(=O)Nc1ccc(C(F)(F)F)cc1`, for which the IC50 was > 100 µM (inactive). The pIC50 under setting [1] was less than 4.00. In addition, the IC90 under setting [2] is greater than 100 µM. In addition, the concentration for an effect of 90% (IC90) under setting [3] was greater than 100 µM.

Turning to `Cc1ccc(CNC(=O)c2ccccc2NC(=O)CSc2nnnn2C)cc1`, the IC50 was 36.6 µM (inactive). The same compound showed a pIC50 under setting [1] of 4.09. Under setting [2], the IC90 was greater than 100 µM. The IC90 under setting [3] was greater than 100 µM.

For the compound `CCCn1nc(NC(=O)c2ccco2)c2cc3cc(C)ccc3nc21`, the IC50 is > 100 µM (inactive). In addition, the pIC50 under setting [1] is less than 4.00. Under setting [2], the IC90 was greater than 100 µM. The IC90 under setting [3] was greater than 100 µM.

On to `Cc1cc(NC(=O)c2ccc3c(c2)OCCO3)ccc1NC(=O)c1cc2ccccc2o1`, for which the IC50 is 76.3 µM (inactive). In addition, the pIC50 under setting [1] was less than 4.00. This compound also displayed an IC90 under setting [2] greater than 100 µM. This compound also registered an IC90 under setting [3] greater than 100 µM.

Regarding `Cn1nc(-c2ccc(OCC(=O)NCC3CCCO3)cc2)c2ccccc2c1=O` (stereo not drawn), the IC50 is > 100 µM (inactive). Also, the pIC50 under setting [1] was less than 4.00. This compound also returned an IC90 under setting [2] greater than 100 µM. This compound had an IC90 under setting [3] greater than 100 µM.

With `CCN(CC)c1ccc(C(=O)n2cnc3ccccc32)cc1`, the IC50 is 70.3 µM (inactive). The same compound showed a pIC50 under setting [1] of 4.04. The IC90 under setting [2] is greater than 100 µM. Further, under setting [3], the IC90 is greater than 100 µM.
